Assay results reported in patent publication US20130040882A1, “USE OF FIBROBLAST GROWTH FACTOR FRAGMENTS” (NOVARTIS AG, priority 2003, published 2013).

Test system: uterine gene expression
Test: Gene expression profiling (HGU133A) in the uterus of ovariectomized monkeys treated with estradiol, tamoxifen or raloxifene
Assay type: in vivo, cynomolgus monkeys (Macaca fascicularis)
Details: uterus, OVX monkeys

CC/C(=C(\c1ccccc1)c1ccc(OCCN(C)C)cc1)c1ccccc1 [tamoxifen]
1.4 fold: Fold change relative to SHAM control: H2A histone family, member Y | Fold change relative to SHAM control: Histone H2A.F/Z variant | Fold change relative to SHAM control: Nidogen (enactin) | Fold change relative to SHAM control: Peroxiredoxin 1 | Fold change relative to SHAM control: SET domain, bifurcated 1 | Fold change relative to SHAM control: Secreted frizzled-related protein 4 | Fold change relative to OVX: H3 histone, family 3A (entry with OVX average 9495) | Fold change relative to OVX: H3 histone, family 3A (entry with OVX average 9692) | Fold change relative to SHAM control: ATP synthase, H+ transporting, mitochondrial F0 complex, subunit c (subunit 9) isoform 3 (entry with SHAM average 1355) | Fold change relative to SHAM control: Collagen, type III, alpha 1 (Ehlers-Danlos syndrome type IV, autosomal dominant) (entry with SHAM average 7354) | Fold change relative to SHAM control: H3 histone, family 3A (entry with SHAM average 9408)
0.5 fold: Fold change relative to OVX: Cyclin-dependent kinase inhibitor 1C (p57, Kip2) (entry with OVX average 527) | Fold change relative to OVX: Cyclin-dependent kinase inhibitor 1C (p57, Kip2) (entry with OVX average 762)
3.7 fold: Fold change relative to OVX: Insulin-like growth factor 1 (somatomedin C) (entry with OVX average 102) | Fold change relative to OVX: Collagen, type I, alpha 2 (entry with OVX average 2757)
4.6 fold: Fold change relative to OVX: Insulin-like growth factor 1 (somatomedin C) (entry with OVX average 156)
2.3 fold: Fold change relative to OVX: Fibronectin 1 (entry with OVX average 39)
6.1 fold: Fold change relative to OVX: Collagen, type I, alpha 2 (entry with OVX average 154)
1.5 fold: Fold change relative to SHAM control: Progesterone receptor | Fold change relative to SHAM control: Solute carrier family 22 (organic cation transporter), member 1-like | Fold change relative to SHAM control: Solute carrier family 25 (mitochondrial carrier; adenine nucleotide translocator), member 5 | Fold change relative to SHAM control: Testis Enhanced Gene Transcript (Bax Inhibitor 1)
2.7 fold: Fold change relative to OVX: Collagen, type IV, alpha 1 (entry with OVX average 690)
0.3 fold: Fold change relative to SHAM control: Matrix metalloproteinase 19
1.9 fold: Fold change relative to OVX: Bone morphogenetic protein 1 (entry with OVX average 79) | Fold change relative to OVX: Fibrillin 1 (Marfan syndrome) (entry with OVX average 124) | Fold change relative to OVX: Fibronectin 1 (entry with OVX average 586) | Fold change relative to OVX: Fibronectin 1 (entry with OVX average 648) | Fold change relative to OVX: ATP synthase, H+ transporting, mitochondrial F0 complex, subunit c (subunit 9) isoform 3 (entry with OVX average 1007) | Fold change relative to SHAM control: Collagen, type I, alpha 2 (entry with SHAM average 493)
1.3 fold: Fold change relative to SHAM control: Solute carrier family 2 (facilitated glucose/fructose transporter), member 5 (entry with SHAM average 291) | Fold change relative to SHAM control: Collagen, type IV, alpha 1 (entry with SHAM average 436) | Fold change relative to SHAM control: Fibrillin 1 (Marfan syndrome) (entry with SHAM average 1388) | Fold change relative to SHAM control: Collagen, type I, alpha 2 (entry with SHAM average 7758) | Fold change relative to SHAM control: H3 histone, family 3A (entry with SHAM average 10239)
1.6 fold: Fold change relative to SHAM control: LDL receptor adaptor protein | Fold change relative to OVX: Fibronectin 1 (entry with OVX average 757) | Fold change relative to SHAM control: ATP synthase, H+ transporting, mitochondrial F0 complex, subunit c (subunit 9) isoform 3 (entry with SHAM average 1045) | Fold change relative to SHAM control: Collagen, type IV, alpha 1 (entry with SHAM average 1143)
0.9 fold: Fold change relative to SHAM control: Integrin, beta 5 | Fold change relative to SHAM control: Intercrine-alpha, mrna sequence | Fold change relative to SHAM control: Phospholipid transfer protein | Fold change relative to SHAM control: Pituitary tumour-transforming 1 interacting protein | Fold change relative to SHAM control: Stem cell growth factor; lymphocyte secreted C-type lectin | Fold change relative to SHAM control: Thioredoxin interacting protein | Fold change relative to SHAM control: Fibronectin 1 (entry with SHAM average 100) | Fold change relative to SHAM control: Fibronectin 1 (entry with SHAM average 920) | Fold change relative to SHAM control: Fibronectin 1 (entry with SHAM average 1288) | Fold change relative to SHAM control: Fibronectin 1 (entry with SHAM average 1301)
4.8 fold: Fold change relative to OVX: Insulin-like growth factor 1 (somatomedin C) (entry with OVX average 310)
0.6 fold: Fold change relative to SHAM control: Cyclin-dependent kinase inhibitor 1C (p57, Kip2) (entry with SHAM average 459) | Fold change relative to SHAM control: Cyclin-dependent kinase inhibitor 1C (p57, Kip2) (entry with SHAM average 660)
1.7 fold: Fold change relative to SHAM control: Insulin-like growth factor binding protein 2, 36 kda | Fold change relative to SHAM control: Insulin-like growth factor 1 (somatomedin C) (entry with SHAM average 226) | Fold change relative to SHAM control: Insulin-like growth factor 1 (somatomedin C) (entry with SHAM average 417)
1.2 fold: Fold change relative to SHAM control: Latent transforming growth factor beta binding protein 1 | Fold change relative to SHAM control: Insulin receptor (Table 46) | Fold change relative to SHAM control: Insulin receptor (Table 51) | Fold change relative to SHAM control: Solute carrier family 2 (facilitated glucose/fructose transporter), member 5 (entry with SHAM average 317) | Fold change relative to SHAM control: Collagen, type III, alpha 1 (Ehlers-Danlos syndrome type IV, autosomal dominant) (entry with SHAM average 2992)
1.1 fold: Fold change relative to SHAM control: LIM and senescent cell antigen-like domains 1 | Fold change relative to SHAM control: Procollagen C-endopeptidase enhancer | Fold change relative to SHAM control: Protein tyrosine kinase 9 | Fold change relative to SHAM control: Secreted frizzled-related protein 1 | Fold change relative to SHAM control: Serine (or cysteine) proteinase inhibitor, clade H (heat shock protein 47), member 1, (collagen binding protein 1) | Fold change relative to SHAM control: Ubiquinol-cytochrome c reductase, Rieske iron-sulfur polypeptide 1 | Fold change relative to SHAM control: Wingless-type MMTV integration site family, member 2B
3.4 fold: Fold change relative to OVX: Collagen, type III, alpha 1 (Ehlers-Danlos syndrome type IV, autosomal dominant) (entry with OVX average 1084)
2.2 fold: Fold change relative to OVX: Bone morphogenetic protein 1 (entry with OVX average 93) | Fold change relative to OVX: Solute carrier family 2 (facilitated glucose/fructose transporter), member 5 (entry with OVX average 171)
3.2 fold: Fold change relative to OVX: Collagen, type IV, alpha 1 (entry with OVX average 182)
2.6 fold: Fold change relative to SHAM control: Insulin-like growth factor 1 (somatomedin C) (entry with SHAM average 581)
2.1 fold: Fold change relative to OVX: Solute carrier family 2 (facilitated glucose/fructose transporter), member 5 (entry with OVX average 176) | Fold change relative to OVX: Fibrillin 1 (Marfan syndrome) (entry with OVX average 874)
2.0 fold: Fold change relative to OVX: Fibronectin 1 (entry with OVX average 419) | Fold change relative to OVX: ATP synthase, H+ transporting, mitochondrial F0 complex, subunit c (subunit 9) isoform 3 (entry with OVX average 811)
2.9 fold: Fold change relative to SHAM control: Tenascin C (hexabrachion) | Fold change relative to OVX: Collagen, type III, alpha 1 (Ehlers-Danlos syndrome type IV, autosomal dominant) (entry with OVX average 3445)
1.0 fold: Fold change relative to SHAM control: Heparan sulfate proteoglycan 2 (perlecan) | Fold change relative to SHAM control: Insulin-like growth factor binding protein 5 | Fold change relative to SHAM control: Laminin, beta 1 | Fold change relative to SHAM control: Mitogen-activated protein kinase kinase kinase kinase 4 | Fold change relative to SHAM control: Phosphatase and tensin homolog (mutated in multiple advanced cancers 1) | Fold change relative to SHAM control: Procollagen-proline, 2-oxoglutarate 4-dioxygenase (proline 4-hydroxylase), alpha polypeptide II | Fold change relative to SHAM control: Secreted protein, acidic, cysteine-rich (osteonectin) | Fold change relative to SHAM control: Transforming growth factor, beta-induced, 68 kda | Fold change relative to SHAM control: Wingless-type MMTV integration site family, member 16 | Fold change relative to SHAM control: Bone morphogenetic protein 1 (entry with SHAM average 143) | Fold change relative to SHAM control: Bone morphogenetic protein 1 (entry with SHAM average 205) | Fold change relative to SHAM control: Fibrillin 1 (Marfan syndrome) (entry with SHAM average 236) | Fold change relative to SHAM control: Fibronectin 1 (entry with SHAM average 1089)
0.7 fold: Fold change relative to OVX: Insulin receptor (Table 46) | Fold change relative to OVX: Insulin receptor (Table 51) | Fold change relative to OVX: Cyclin-dependent kinase inhibitor 1C (p57, Kip2) (entry with OVX average 224)
0.8 fold: Fold change relative to SHAM control: Growth associated protein 43 | Fold change relative to SHAM control: Osteoglycin (osteoinductive factor, mimecan) | Fold change relative to SHAM control: SPARC-like 1 (mast9, hevin) | Fold change relative to SHAM control: Cyclin-dependent kinase inhibitor 1C (p57, Kip2) (entry with SHAM average 201)
